Test system: NCI-H929 complex spheroids, viability % test/control
Experiment: Anticancer human tumor NCI-H929 cell line growth inhibition [RAS];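 note: compound exposure lasted seven days before viability was read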
Conditions: for viability, T/C: stronger effect = lower value
Excerpt: RAS pathway inhibitors in Combinations in Complex Spheroids
A high-throughput screen of multi-cell type tumor spheroids was designed to identify active combinations of RAS pathway inhibitors and targeted small molecules. Complex spheroids include a stromal component modeled by human endothelial cells (HUVEC) and fibroblasts modeled by human mesenchymal stem cells (MSCs). The concentration ranges selected for each drug and investigational agent were based upon clinically achievable concentrations if the clinical Cmax of the agent was known.
Compounds. The drugs and investigational agents: abemaciclib (NSC768073), cobimetinib (NSC768068), divarasib (GDC6063, NSC841802), docetaxel (NSC628503), GDC-1971 (RLY-1971, NSC841576), gemcitabine (NSC613327), inavolisib (NSC800729), ipatasertib (NSC767898), KB-0742 (NSC834161), MRTX-1133 (NSC836407), osimertinib (NSC779217), RMC-4630 (NSC839698), RMC-6236 (NSC851965), RMC-6291 (NSC852671), Ro-3306 (NSC812927), sapanisertib (NSC764658), SN-38 (NSC673596), staurosporine (NSC755774), SY5609 (NSC837396), and tovorafenib (DAY101, NSC766906), were obtained from the National Cancer Institute (NCI) Developmental Therapeutics Program Chemical Repository. The FDA-approved anticancer drug set is available from the NCI Developmental Therapeutics Program. […] The stock solutions were prepared in dimethyl sulfoxide (DMSO, Sigma-Aldrich, St. Louis, MO, cat. D2650) at 800-fold the tested concentration and stored at -70 degrees C prior to their use. All drugs and investigational agents were tested over a range starting from a high concentration at or near the clinical Cmax and decreasing in half-log increments. If the clinical Cmax for an agent had not been determined, the highest concentration tested was 10 microM.
Cell Culture. All cells were maintained in an incubator at 37 degrees C and 5% CO2 with 95% humidity. The PDC lines were cultured according to standard operating procedures established by the NCI PDMR. All PDCs were thawed and cultured in Matrigel-coated flasks prepared with a working solution of 1X Ham's F-12 nutrient mix, without supplementation (Invitrogen, Waltham, MA, cat. 11765054), 100 U/mL penicillin-streptomycin (Invitrogen, cat. 15140122), and 2.5% Matrigel (Corning Inc., Corning, NY, cat. 354248) for the first three passages. The 362531-283-R-J2-PDC and 782815-120-R-J1-PDC lines were cultured in 6C/Colon 1B media, which includes advanced DMEM/F-12 (Thermo Fisher Scientific, cat. 12634028), 10 mM HEPES (Thermo Fisher Scientific, cat. 15630080), 1X GlutaMAX supplement (Thermo Fisher Scientific, cat. 35050061), 0.1 mg/mL primocin (InvivoGen, San Diego, CA, cat. ant-pm-2), 10% defined fetal bovine serum, heat inactivated (HyClone Laboratories Inc., Logan, UT, cat. SH30070.03HI), 50% L-WRN conditioned media (ATCC, cat. CRL-3276), 1.25 mM N-Acetyl-L-cysteine (Sigma-Aldrich, cat. A9165), 10 mM nicotinamide (Sigma-Aldrich, cat. N0636), 1X B-27 supplement (Thermo Fisher Scientific, cat. 17504044), 1X N-2 supplement (Thermo Fisher Scientific, cat. 17502048), 50 ng/mL human EGF (Thermo Fisher Scientific, cat. PHG0311), and 10 microM Y-27632 dihydrochloride (Tocris Bioscience, cat. 1254). The K12877-001-R-J1-PDC line was cultured in 6I media, which includes all 6C/Colon 1B media plus 10 ng/mL human FGF-10 (PeproTech, cat. 100-26), 1 ng/mL human FGF-2 (PeproTech, cat. 100-18B), 1 µM prostaglandin E2 (Tocris Bioscience, cat. 2296), […] hydrocortisone (Sigma-Aldrich, cat. H4001), and […] bovine insulin (Sigma-Aldrich, cat. I6634). The K86415-001-R-J1-PDC line was cultured in 6D media, which includes all 6C/Colon 1B media components minus the L-WRN conditioned media. The 485176-168-R4-J1-PDC was cultured in PANC media, which includes all 6C/Colon 1B media plus 100 ng/mL human FGF-10 (PeproTech, cat. 100-26), 500 nM SB-431542 (Selleckchem, cat. S1067), and 10 nM gastrin (Tocris Bioscience, cat. 3006). […]

[1] = curve of first compound, second compound 0.0316 µM
[2] = curve of first compound, second compound 0.1 µM
[3] = curve of first compound, second compound 0.316 µM
[4] = curve of first compound, second compound 1 µM
[5] = second compound 0.0316 µM, first compound 0.0316 µM
[6] = second compound 0.0316 µM, first compound 0.1 µM
[7] = second compound 0.0316 µM, first compound 0.316 µM
[8] = second compound 0.0316 µM, first compound 1 µM
[9] = second compound 0.0316 µM, first compound 3.16 µM
[10] = second compound 0.0316 µM, first compound 10 µM
[11] = second compound 0.1 µM, first compound 0.0316 µM
[12] = second compound 0.1 µM, first compound 0.1 µM
[13] = second compound 0.1 µM, first compound 0.316 µM
[14] = second compound 0.1 µM, first compound 1 µM
[15] = second compound 0.1 µM, first compound 3.16 µM
[16] = second compound 0.1 µM, first compound 10 µM
[17] = second compound 0.316 µM, first compound 0.0316 µM
[18] = second compound 0.316 µM, first compound 0.1 µM
[19] = second compound 0.316 µM, first compound 0.316 µM
[20] = second compound 0.316 µM, first compound 1 µM
[21] = second compound 0.316 µM, first compound 3.16 µM
[22] = second compound 0.316 µM, first compound 10 µM
[23] = second compound 1 µM, first compound 0.0316 µM
[24] = second compound 1 µM, first compound 0.1 µM
[25] = second compound 1 µM, first compound 0.316 µM
[26] = second compound 1 µM, first compound 1 µM
[27] = second compound 1 µM, first compound 3.16 µM
[28] = second compound 1 µM, first compound 10 µM

With C#Cc1c(F)ccc2cc(O)cc(-c3ncc4c(N5CC6CCC(C5)N6)nc(OCC56CCCN5CC(F)C6)nc4c3F)c12 (stereo unspecified) the viability, T/C (compound 0.0316 µM) was 102% [middle of 8 runs], the viability, T/C (compound 0.1 µM) was 103% [middle of 8 runs] and the viability, T/C (compound 0.316 µM) was 101% [middle of 8 runs]. The viability, T/C (compound 1 µM) was 97% [middle of 8 runs], the viability, T/C (compound 3.16 µM) was 97.6% [middle of 8 runs] and the viability, T/C (compound 10 µM) was 96.6% [middle of 8 runs]. The IC50 (compound alone, run of 09/09/2024) was greater than 10 µM.

NC1c2ccccc2OC12CCN(c1cnc3c(N4CCCc5ncccc54)n[nH]c3n1)CC2 (stereo unspecified) + C#Cc1c(F)ccc2cc(O)cc(-c3ncc4c(N5CC6CCC(C5)N6)nc(OCC56CCCN5CC(F)C6)nc4c3F)c12 was tested, and the IC50 [1] was greater than 10 µM, the IC50 [2] was greater than 10 µM and the IC50 [3] was greater than 10 µM. It also gave an IC50 [4] greater than 10 µM, an IC50 (curve of first compound, second compound 3.16 µM) greater than 10 µM and an IC50 (curve of first compound, second compound 10 µM) greater than 10 µM. For the same molecule, the viability, T/C [5] was 100%, the viability, T/C [6] was 91.8% and the viability, T/C [7] was 104%. It also gave a viability, T/C [8] of 100%, a viability, T/C [9] of 104% and a viability, T/C [10] of 70.2%. For the same molecule, the viability, T/C [11] was 95.9%, the viability, T/C [12] was 98% and the viability, T/C [13] was 101%. The viability, T/C [14] was 101%, the viability, T/C [15] was 105% and the viability, T/C [16] was 64.8%. The viability, T/C [17] was 99.2%, the viability, T/C [18] was 97.4% and the viability, T/C [19] was 105%. The viability, T/C [20] was 99.8%, the viability, T/C [21] was 104% and the viability, T/C [22] was 67.8%. The viability, T/C [23] was 98.3%, the viability, T/C [24] was 96.5% and the viability, T/C [25] was 106%. It also gave a viability, T/C [26] of 106%, a viability, T/C [27] of 99.7% and a viability, T/C [28] of 67.2%. It also gave a viability, T/C (second compound 3.16 µM, first compound 0.0316 µM) of 96.3%, a viability, T/C (second compound 3.16 µM, first compound 0.1 µM) of 98.7% and a viability, T/C (second compound 3.16 µM, first compound 0.316 µM) of 99%. It also gave a viability, T/C (second compound 3.16 µM, first compound 1 µM) of 101%, a viability, T/C (second compound 3.16 µM, first compound 3.16 µM) of 103% and a viability, T/C (second compound 3.16 µM, first compound 10 µM) of 59.5%. The viability, T/C (second compound 10 µM, first compound 0.0316 µM) was 95.9%, the viability, T/C (second compound 10 µM, first compound 0.1 µM) was 94.7% and the viability, T/C (second compound 10 µM, first compound 0.316 µM) was 98.6%. It also gave a viability, T/C (second compound 10 µM, first compound 1 µM) of 97.3%, a viability, T/C (second compound 10 µM, first compound 3.16 µM) of 82.1% and a viability, T/C (second compound 10 µM, first compound 10 µM) of 53.6%.

Molecule CC(=O)OC12COC1CC(O)C1(C)C(=O)C(O)C3=C(C)C(OC(=O)C(O)C(NC(=O)OC(C)(C)C)c4ccccc4)CC(O)(C(OC(=O)c4ccccc4)C21)C3(C)C (stereo unspecified) + C=CC(=O)N1CCN(c2nc(OCC3CCCN3C)nc3c(F)c(-c4nc(N)cc(C)c4C(F)(F)F)c(Cl)cc23)C(C)C1 has an IC50 (curve of first compound, second compound 0.00316 µM) of less than 0.0316 µM, an IC50 (curve of first compound, second compound 0.01 µM) of less than 0.0316 µM and an IC50 [1] of less than 0.0316 µM. The IC50 [2] was less than 0.0316 µM, the IC50 [3] was less than 0.0316 µM and the IC50 [4] was less than 0.0316 µM. It also gave a viability, T/C (second compound 0.00316 µM, first compound 0.0316 µM) of 0.81%, a viability, T/C (second compound 0.00316 µM, first compound 0.1 µM) of 0.73% and a viability, T/C (second compound 0.00316 µM, first compound 0.316 µM) of 1.35%. For the same molecule, the viability, T/C (second compound 0.00316 µM, first compound 1 µM) was 2.03%, the viability, T/C (second compound 0.00316 µM, first compound 3.16 µM) was 1.42% and the viability, T/C (second compound 0.00316 µM, first compound 10 µM) was 1.11%. It also gave a viability, T/C (second compound 0.01 µM, first compound 0.0316 µM) of 1.77%, a viability, T/C (second compound 0.01 µM, first compound 0.1 µM) of 0.94% and a viability, T/C (second compound 0.01 µM, first compound 0.316 µM) of 1.67%. It also gave a viability, T/C (second compound 0.01 µM, first compound 1 µM) of 1.93%, a viability, T/C (second compound 0.01 µM, first compound 3.16 µM) of 1.54% and a viability, T/C (second compound 0.01 µM, first compound 10 µM) of 1.19%. It also gave a viability, T/C [5] of 1.41%, a viability, T/C [6] of 1.13% and a viability, T/C [7] of 1.31%. For the same molecule, the viability, T/C [8] was 1.79%, the viability, T/C [9] was 1.72% and the viability, T/C [10] was 0.97%. The viability, T/C [11] was 2.46%, the viability, T/C [12] was 1.76% and the viability, T/C [13] was 0.8%. The viability, T/C [14] was 2.06%, the viability, T/C [15] was 1.88% and the viability, T/C [16] was 1.11%. It also gave a viability, T/C [17] of 0.97%, a viability, T/C [18] of 1.22% and a viability, T/C [19] of 0.89%. For the same molecule, the viability, T/C [20] was 2.24%, the viability, T/C [21] was 1.05% and the viability, T/C [22] was 1.06%. It also gave a viability, T/C [23] of 2.41%, a viability, T/C [24] of 1.89% and a viability, T/C [25] of 1.45%. It also gave a viability, T/C [26] of 0.87%, a viability, T/C [27] of 1.43% and a viability, T/C [28] of 1.17%.

From PubChem BioAssay AID2060884 (Molecular Pharmacology Branch, DTP, NCI, 2025)
